Results published in BindingDB's records for doi:10.1021/acs.jmedchem.1c00742 (H. Lee Moffitt Cancer Center and Research Institute, 2021).

Molecular target: T1, B-cell CLL/lymphoma 9 protein (Homo sapiens, UniProt O00512)
T1 sequence (O00512 whole entry): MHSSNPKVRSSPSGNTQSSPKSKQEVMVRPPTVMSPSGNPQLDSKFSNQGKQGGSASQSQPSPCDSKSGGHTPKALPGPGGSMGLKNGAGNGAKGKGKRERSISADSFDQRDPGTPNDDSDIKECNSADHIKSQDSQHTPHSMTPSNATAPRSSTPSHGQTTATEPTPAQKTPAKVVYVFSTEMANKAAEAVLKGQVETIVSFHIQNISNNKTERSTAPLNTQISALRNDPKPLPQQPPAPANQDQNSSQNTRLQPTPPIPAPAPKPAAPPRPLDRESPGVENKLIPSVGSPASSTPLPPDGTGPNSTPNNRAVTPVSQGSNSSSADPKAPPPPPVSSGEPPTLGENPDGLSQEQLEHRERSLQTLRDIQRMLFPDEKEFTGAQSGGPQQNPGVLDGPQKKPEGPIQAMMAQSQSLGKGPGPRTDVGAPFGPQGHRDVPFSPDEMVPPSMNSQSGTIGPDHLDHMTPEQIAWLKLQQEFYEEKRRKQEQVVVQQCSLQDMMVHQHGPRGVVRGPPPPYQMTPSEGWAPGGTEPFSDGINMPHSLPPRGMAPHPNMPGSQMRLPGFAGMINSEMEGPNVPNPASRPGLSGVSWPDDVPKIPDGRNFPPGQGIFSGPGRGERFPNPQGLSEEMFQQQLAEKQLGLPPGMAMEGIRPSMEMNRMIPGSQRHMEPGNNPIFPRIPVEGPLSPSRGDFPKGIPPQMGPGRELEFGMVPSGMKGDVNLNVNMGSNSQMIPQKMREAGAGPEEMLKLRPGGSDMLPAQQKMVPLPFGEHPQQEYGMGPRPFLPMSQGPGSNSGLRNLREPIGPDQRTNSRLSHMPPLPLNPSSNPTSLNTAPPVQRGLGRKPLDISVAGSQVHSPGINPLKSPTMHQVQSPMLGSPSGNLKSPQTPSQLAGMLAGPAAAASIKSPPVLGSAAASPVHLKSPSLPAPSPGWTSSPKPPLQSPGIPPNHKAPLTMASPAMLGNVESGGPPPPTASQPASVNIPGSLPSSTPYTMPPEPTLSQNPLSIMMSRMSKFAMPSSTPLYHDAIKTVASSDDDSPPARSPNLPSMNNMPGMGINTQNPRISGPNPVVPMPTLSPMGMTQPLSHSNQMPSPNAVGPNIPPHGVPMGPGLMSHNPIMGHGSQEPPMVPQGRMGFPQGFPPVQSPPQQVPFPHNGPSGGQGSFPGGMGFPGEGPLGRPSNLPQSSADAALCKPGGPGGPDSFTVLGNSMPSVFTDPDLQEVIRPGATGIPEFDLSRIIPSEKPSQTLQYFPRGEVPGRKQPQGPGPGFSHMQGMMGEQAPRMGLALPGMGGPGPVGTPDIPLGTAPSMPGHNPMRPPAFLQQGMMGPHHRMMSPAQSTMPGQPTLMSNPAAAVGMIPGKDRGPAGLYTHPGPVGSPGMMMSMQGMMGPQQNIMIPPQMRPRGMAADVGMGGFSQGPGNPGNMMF
Experiment: Competitive binding affinity to C-terminal 6-His-tagged beta-catenin (1 to 781 residues) (unknown origin) expressed in Escherichia coli BL21 (DE3)- N-terminal biotinylated human BCL9 (350 to 375 residues) assessed as apparent dissociation constant incubated for 2 hrs by AlphaScreen assay

Kd: 770 nM
SMILES: CC(C)(Oc1cccc(N2CCC[C@@H](C(=O)N(CCOCCOCCNC(=O)CCCC[C@@H]3SC[C@@H]4NC(=O)N[C@@H]43)Cc3ccc(-c4cn[nH]c4)cc3)C2)c1)C(=O)N1CCNCC1
